Results published in the supplement of paper PMC10307832.

Tests used:
Assay in all cases: relative viability (nuclei count vs DMSO), 5 days (fraction); higher = more cells survive
[1] = compound: C1COCCN1C2=NC(=NC3=C2OC4=C3C=CC=N4)C5=CC(=CC=C5)NC(=O)C6=CN=C(C=C6)N + CCNC(=O)c1noc(-c2cc(C(C)C)c(O)cc2O)c1-c1ccc(CN2CCOCC2)cc1 [Luminespib] (partner 0.01 µM)
Summary of the method: (§1)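 Relative viability was taken as the ratio of nuclei in treated wells to nuclei in vehicle wells. Lung cancer cell lines in 1536-well plates received compounds by pin tool one day after seeding, either one drug alone or a fixed anchor-drug dose plus five library-drug doses (not always all listed) in √10 steps. Nuclei were counted on 4× images after 5 days of treatment, and values are medians of duplicate plates.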

SGI-1776 + Decitabine = compound: CN1CCC(CNc2ccc3ncc(-c4cccc(OC(F)(F)F)c4)n3n2)CC1 [SGI-1776] + Nc1ncn([C@H]2C[C@H](O)[C@@H](CO)O2)c(=O)n1 [Decitabine] (partner 2 µM)
Summary of the method: as §1

SGI-1776 + Vorinostat = compound: CN1CCC(CNc2ccc3ncc(-c4cccc(OC(F)(F)F)c4)n3n2)CC1 [SGI-1776] + O=C(CCCCCCC(=O)Nc1ccccc1)NO [Vorinostat] (partner 1 µM)
Summary of the method: as §1

Entinostat + Bortezomib = compound: Nc1ccccc1NC(=O)c1ccc(CNC(=O)OCc2cccnc2)cc1 [Entinostat] + CC(C)C[C@H](NC(=O)[C@H](Cc1ccccc1)NC(=O)c1cnccn1)B(O)O [Bortezomib] (partner 0.002 µM)
Summary of the method: as §1

Row | Cell Line | relative viability ([1]; first compound 0.02 µM) | relative viability ([1]; first compound 0.06325 µM) | relative viability ([1]; first compound 0.2 µM) | relative viability ([1]; first compound 0.6325 µM) | relative viability ([1]; first compound 2 µM) | relative viability (SGI-1776 + Decitabine; first compound 0.08 µM) | relative viability (SGI-1776 + Decitabine; first compound 0.8 µM) | relative viability (SGI-1776 + Decitabine; first compound 2.53 µM) | relative viability (SGI-1776 + Decitabine; first compound 8 µM) | relative viability (SGI-1776 + Vorinostat; first compound 0.08 µM) | relative viability (SGI-1776 + Vorinostat; first compound 0.8 µM) | relative viability (SGI-1776 + Vorinostat; first compound 2.53 µM) | relative viability (SGI-1776 + Vorinostat; first compound 8 µM) | relative viability (Entinostat + Bortezomib; first compound 0.02 µM) | relative viability (Entinostat + Bortezomib; first compound 0.06325 µM) | relative viability (Entinostat + Bortezomib; first compound 0.2 µM) | relative viability (Entinostat + Bortezomib; first compound 0.6325 µM) | relative viability (Entinostat + Bortezomib; first compound 2 µM)
1 | HOP-62 | 0.882 | 0.983 | 0.833 | 0.863 | 0.44 | 0.214 | 0.221 | 0.214 | 0.242 | 0.765 | 0.67 | 0.648 | 0.544 | 0.804 | 0.591 | 0.763 | 0.398 | 0.17
2 | IA-LM |  |  |  |  |  |  |  |  |  | 0.956 | 0.914 | 0.922 | 0.926 | 0.814 | 0.842 | 1.03 | 0.597 | 0.447
3 | LC-2-ad | 0.857 | 1.08 | 1.02 | 1.06 | 0.872 | 0.806 | 0.811 | 0.737 | 0.779 | 0.676 | 0.709 | 0.663 | 0.66 | 0.961 | 0.895 | 0.818 | 0.591 | 0.197
4 | LCLC-97TM1 | 0.787 | 0.908 | 0.739 | 0.826 | 0.566 | 0.234 | 0.206 | 0.26 | 0.236 | 0.777 | 0.842 | 0.79 | 0.727 | 0.69 | 0.912 | 0.912 | 0.355 | 0.128
5 | LCLC-103H | 0.99 | 1.04 | 0.89 | 1.1 | 0.461 | 0.738 | 0.656 | 0.762 | 0.69 | 0.839 | 0.862 | 0.832 | 0.652 | 1.05 | 1.04 | 1.11 | 0.868 | 0.498
6 | LK-2 | 0.193 | 0.196 | 0.201 | 0.169 | 0.175 | 0.323 | 0.356 | 0.3 | 0.286 | 0.35 | 0.347 | 0.23 | 0.321 |  |  |  |  | 
7 | LOU-NH91 | 0.309 | 0.389 | 0.346 | 0.315 | 0.306 | 0.853 | 0.811 | 0.799 | 0.705 | 0.976 | 1 | 0.845 | 0.644 | 0.496 | 0.52 | 0.534 | 0.545 | 0.512
8 | LU99A | 0.265 | 0.221 | 0.235 | 0.207 | 0.266 | 0.859 | 0.872 | 0.94 | 0.876 | 0.463 | 0.531 | 0.56 | 0.443 | 1.02 | 1.26 | 1 | 0.801 | 0.784
9 | NCI-H358 | 0.287 | 0.254 | 0.353 | 0.426 | 0.193 | 0.223 | 0.245 | 0.191 | 0.133 | 0.686 | 1.06 | 0.634 | 0.625 |  |  |  |  | 
10 | NCI-H522 | 0.993 | 1.23 | 1.13 | 0.986 | 0.719 | 0.632 | 0.595 | 0.728 | 0.562 | 0.92 | 0.896 | 0.903 | 0.858 |  |  |  |  | 
11 | NCI-H1299 |  |  |  |  |  |  |  |  |  |  |  |  |  | 1.04 | 0.985 | 0.934 | 0.858 | 0.732
12 | NCI-H1395 | 0.666 | 0.555 | 0.789 | 0.658 | 0.482 | 0.721 | 0.708 | 0.58 | 0.674 | 0.887 | 0.755 | 0.558 | 0.47 |  |  |  |  | 
13 | NCI-H1563 | 0.492 | 0.516 | 0.542 | 0.474 | 0.48 |  |  |  |  |  |  |  |  | 0.841 | 0.843 | 0.908 | 0.722 | 0.65
14 | NCI-H1623 | 0.486 | 0.503 | 0.461 | 0.439 | 0.835 |  |  |  |  |  |  |  |  |  |  |  |  | 
15 | NCI-H1648 |  |  |  |  |  | 0.432 | 0.414 | 0.461 | 0.497 | 0.476 | 0.555 | 0.294 | 0.39 |  |  |  |  | 
16 | NCI-H1703 |  |  |  |  |  |  |  |  |  |  |  |  |  | 0.314 | 0.383 | 0.308 | 0.265 | 0.149
17 | NCI-H1792 | 0.286 | 0.487 | 0.405 | 0.286 | 0.331 | 0.651 | 0.508 | 0.658 | 0.527 |  |  |  |  | 0.952 | 0.992 | 1.03 | 0.802 | 0.606
18 | NCI-H1793 | 0.16 | 0.192 | 0.168 | 0.165 | 0.158 | 0.49 | 0.512 | 0.516 | 0.509 | 0.843 | 1.15 | 0.768 | 0.638 |  |  |  |  | 
19 | NCI-H1944 | 0.728 | 0.786 | 0.665 | 0.555 | 0.553 | 0.427 | 0.439 | 0.468 | 0.396 | 0.584 | 0.646 | 0.553 | 0.477 |  |  |  |  | 
20 | NCI-H2170 | 0.579 | 0.893 | 0.723 | 0.606 | 0.584 | 0.478 | 0.441 | 0.393 | 0.475 | 0.83 | 0.825 | 0.853 | 0.76 |  |  |  |  | 
21 | NCI-H2228 | 0.143 | 0.194 | 0.209 | 0.115 | 0.111 |  |  |  |  | 0.613 | 0.884 | 0.679 | 0.429 | 0.815 | 0.831 | 1.05 | 0.462 | 0.204
22 | NCI-H2342 | 0.746 | 0.768 | 0.719 | 0.665 | 0.596 | 0.776 | 0.707 | 0.658 | 0.712 | 0.78 | 0.723 | 0.707 | 0.799 |  |  |  |  | 
23 | SK-MES-1 | 0.736 | 0.907 | 0.816 | 0.657 | 0.494 | 0.365 | 0.372 | 0.367 | 0.303 | 1.23 | 1.04 | 1.11 | 0.734 |  |  |  |  | 
24 | SW 900 | 0.203 | 0.166 | 0.172 | 0.152 | 0.174 | 0.368 | 0.412 | 0.49 | 0.456 | 0.506 | 0.752 | 0.651 | 0.361 |  |  |  |  | 
